In PubChem BioAssay (NCI):
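The compound was tested at five concentrations on cells cultured in 96-well plates, with a 48-hour exposure period. The concentration for 50% growth inhibition is given as GI50. TGI: concentration producing complete growth inhibition.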

How the values were obtained:
Assay in all cases: NCI tumour cell line growth inhibition, 48 h
PC-3 prostate = system: PC-3 prostate
U251 CNS = system: U251 CNS
T-47D breast = system: T-47D breast
HL-60(TB) leukemia = system: HL-60(TB) leukemia
NCI-H23 lung = system: NCI-H23 lung
TK-10 renal = system: TK-10 renal
M14 melanoma = system: M14 melanoma
LOX IMVI melanoma = system: LOX IMVI melanoma
NCI/ADR-RES ovarian = system: NCI/ADR-RES ovarian
UACC-257 melanoma = system: UACC-257 melanoma
IGROV1 ovarian = system: IGROV1 ovarian
SK-MEL-28 melanoma = system: SK-MEL-28 melanoma
NCI-H522 lung = system: NCI-H522 lung
HS 578T breast = system: HS 578T breast
SK-MEL-5 melanoma = system: SK-MEL-5 melanoma
HCT-116 colon = system: HCT-116 colon
A549 NSCLC = system: A549 NSCLC
MOLT-4 leukemia = system: MOLT-4 leukemia
OVCAR-5 ovarian = system: OVCAR-5 ovarian
SNB-75 CNS = system: SNB-75 CNS
HOP-62 NSCLC = system: HOP-62 NSCLC
NCI-H226 lung = system: NCI-H226 lung
KM12 colon = system: KM12 colon
ACHN renal = system: ACHN renal
SNB-19 CNS = system: SNB-19 CNS
786-0 renal = system: 786-0 renal
HT29 colon = system: HT29 colon
OVCAR-4 ovarian = system: OVCAR-4 ovarian
UACC-62 melanoma = system: UACC-62 melanoma
SK-MEL-2 melanoma = system: SK-MEL-2 melanoma
SF-539 CNS = system: SF-539 CNS
SK-OV-3 ovarian = system: SK-OV-3 ovarian
CCRF-CEM leukemia = system: CCRF-CEM leukemia
COLO 205 colon = system: COLO 205 colon
HOP-92 NSCLC = system: HOP-92 NSCLC
HCT-15 colon = system: HCT-15 colon
DU-145 prostate = system: DU-145 prostate
NCI-H460 lung = system: NCI-H460 lung
RXF 393 renal = system: RXF 393 renal
SR leukemia = system: SR leukemia
K-562 leukemia = system: K-562 leukemia
OVCAR-3 ovarian = system: OVCAR-3 ovarian
MDA-MB-231 breast = system: MDA-MB-231 breast
OVCAR-8 ovarian = system: OVCAR-8 ovarian
SF-295 CNS = system: SF-295 CNS
A498 renal = system: A498 renal
SW-620 colon = system: SW-620 colon
MALME-3M melanoma = system: MALME-3M melanoma
SF-268 CNS = system: SF-268 CNS
UO-31 renal = system: UO-31 renal
RPMI-8226 leukemia = system: RPMI-8226 leukemia
EKVX NSCLC = system: EKVX NSCLC
CAKI-1 renal = system: CAKI-1 renal
MDA-MB-435 = system: MDA-MB-435
BT-549 breast = system: BT-549 breast

## C=C1C(=O)O[C@H]2[C@H]1CC/C(COC(=O)OCCCCCOC(=O)OC/C1=C/CC[C@@]3(C)O[C@H]3[C@H]3OC(=O)C(=C)[C@@H]3CC1)=C\CC[C@@]1(C)O[C@@H]21
PC-3 prostate
  GI50: 1.83 µM
  TGI: 4.54 µM
U251 CNS
  GI50: 1.31 µM
  TGI: 2.82 µM
T-47D breast
  GI50: 0.244 µM
  TGI: 0.75 µM
HL-60(TB) leukemia
  GI50: 0.281 µM
  TGI: 0.793 µM
NCI-H23 lung
  GI50: 0.674 µM
  TGI: 2.37 µM
TK-10 renal
  GI50: 0.222 µM
  TGI: 0.59 µM
M14 melanoma
  GI50: 0.406 µM
  TGI: 1.81 µM
LOX IMVI melanoma
  GI50: 0.241 µM
  TGI: 0.654 µM
NCI/ADR-RES ovarian
  GI50: 2.34 µM
  TGI: 9.58 µM
UACC-257 melanoma
  GI50: 0.661 µM
  TGI: 2.31 µM
IGROV1 ovarian
  GI50: 1.67 µM
  TGI: 4.37 µM
SK-MEL-28 melanoma
  GI50: 0.252 µM
  TGI: 0.842 µM
NCI-H522 lung
  GI50: 0.156 µM
  TGI: 0.372 µM
HS 578T breast
  GI50: 2.48 µM
  TGI: 19.8 µM
SK-MEL-5 melanoma
  GI50: 1.53 µM
  TGI: 3.07 µM
HCT-116 colon
  GI50: 0.174 µM
  TGI: 0.5 µM
A549 NSCLC
  GI50: 2.63 µM
  TGI: 7.42 µM
MOLT-4 leukemia
  GI50: 0.229 µM
  TGI: 0.727 µM
OVCAR-5 ovarian
  GI50: 0.581 µM
  TGI: 2.08 µM
SNB-75 CNS
  GI50: 1.11 µM
  TGI: 2.5 µM
HOP-62 NSCLC
  GI50: 1.76 µM
  TGI: 4.02 µM
NCI-H226 lung
  GI50: 1.64 µM
  TGI: 3.42 µM
KM12 colon
  GI50: 1.51 µM
  TGI: 3.31 µM
ACHN renal
  GI50: 0.176 µM
  TGI: 0.341 µM
SNB-19 CNS
  GI50: 2.1 µM
  TGI: 7.71 µM
786-0 renal
  GI50: 0.266 µM
  TGI: 0.93 µM
HT29 colon
  GI50: 0.242 µM
  TGI: 0.726 µM
OVCAR-4 ovarian
  GI50: 0.683 µM
  TGI: 2.15 µM
UACC-62 melanoma
  GI50: 1.28 µM
  TGI: 3.05 µM
SK-MEL-2 melanoma
  GI50: 1.37 µM
  TGI: 3.31 µM
SF-539 CNS
  GI50: 0.61 µM
  TGI: 2.04 µM
SK-OV-3 ovarian
  GI50: 2.93 µM
  TGI: 9.67 µM
CCRF-CEM leukemia
  GI50: 0.321 µM
  TGI: 1.14 µM
COLO 205 colon
  GI50: 0.199 µM
  TGI: 0.438 µM
HOP-92 NSCLC
  GI50: 1.26 µM
  TGI: 2.94 µM
HCT-15 colon
  GI50: 0.252 µM
  TGI: 0.822 µM
DU-145 prostate
  GI50: 1.04 µM
  TGI: 2.3 µM
NCI-H460 lung
  GI50: 1.87 µM
  TGI: 4.64 µM
RXF 393 renal
  GI50: 0.155 µM
  TGI: 0.307 µM
SR leukemia
  GI50: 0.208 µM
  TGI: 0.744 µM
K-562 leukemia
  GI50: 0.267 µM
  TGI: 1.08 µM
OVCAR-3 ovarian
  GI50: 0.273 µM
  TGI: 0.823 µM
MDA-MB-231 breast
  GI50: 0.256 µM
  TGI: 0.803 µM
OVCAR-8 ovarian
  GI50: 0.331 µM
  TGI: 0.998 µM
SF-295 CNS
  GI50: 2.12 µM
  TGI: 5.88 µM
A498 renal
  GI50: 1.5 µM
  TGI: 3.21 µM
SW-620 colon
  GI50: 0.285 µM
  TGI: 0.902 µM
MALME-3M melanoma
  GI50: 0.285 µM
  TGI: 0.878 µM
SF-268 CNS
  GI50: 1.68 µM
  TGI: 3.99 µM
UO-31 renal
  GI50: 0.674 µM
  TGI: 2.05 µM
RPMI-8226 leukemia
  GI50: 0.359 µM
  TGI: 1.47 µM
EKVX NSCLC
  GI50: 1.12 µM
  TGI: 3.32 µM
CAKI-1 renal
  GI50: 0.308 µM
  TGI: 1.02 µM
MDA-MB-435
  GI50: 0.527 µM
  TGI: 2.13 µM
BT-549 breast
  GI50: 0.182 µM
  TGI: 0.437 µM
